Measurements as given in PubChem BioAssay (NCI).
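96-well plates; 48 h exposure; 5 concentrations. Endpoints by linear interpolation between flanking doses. Not reached: highest tested concentration assigned. GI50: concentration for 50% inhibition of growth. TGI is the concentration that stops growth completely.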

Assays:
Test in all cases: DTP human tumour cell line panel, 48 h
A498 renal = system: A498 renal
CCRF-CEM leukemia = system: CCRF-CEM leukemia
KM12 colon = system: KM12 colon
MDA-MB-435 = system: MDA-MB-435
RPMI-8226 leukemia = system: RPMI-8226 leukemia
SK-MEL-2 melanoma = system: SK-MEL-2 melanoma
SK-MEL-28 melanoma = system: SK-MEL-28 melanoma
SK-MEL-5 melanoma = system: SK-MEL-5 melanoma
SK-OV-3 ovarian = system: SK-OV-3 ovarian
SNB-19 CNS = system: SNB-19 CNS
SNB-75 CNS = system: SNB-75 CNS

Compound | TGI (A498 renal) | TGI (CCRF-CEM leukemia) | TGI (KM12 colon) | TGI (MDA-MB-435) | TGI (RPMI-8226 leukemia) | TGI (SK-MEL-2 melanoma) | TGI (SK-MEL-28 melanoma) | TGI (SK-MEL-5 melanoma) | TGI (SK-OV-3 ovarian) | TGI (SNB-19 CNS) | TGI (SNB-75 CNS) | GI50 (CCRF-CEM leukemia) | GI50 (KM12 colon) | GI50 (RPMI-8226 leukemia) | GI50 (SK-MEL-2 melanoma) | GI50 (SK-MEL-5 melanoma) | GI50 (SK-OV-3 ovarian) | GI50 (SNB-19 CNS)
COc1ccc(N/N=C2\CCOc3ccc(C)cc3C2=O)cc1 | > 100 µM | > 100 µM | > 100 µM | 15.4 µM | 84.1 µM | 46 µM | > 100 µM | 50.6 µM | 80.2 µM | > 100 µM |  |  |  |  |  |  |  | 
CC(C)(C)N1CSC(=S)N(Cc2ccco2)C1 | 26.7 µM | 4.03 µM | 14.3 µM | 13.4 µM | 0.697 µM | 14.6 µM | 10.8 µM | 14 µM | 18.9 µM | 14.5 µM | 26.4 µM |  |  |  |  |  |  | 
CC(=O)O[C@@H]1[C@H](C(C)C)[C@@H](OC(C)=O)C/C(C)=C/CC[C@]2(C)O[C@@H]12 | > 100 µM |  | > 100 µM | > 100 µM | > 100 µM | > 100 µM | > 100 µM | > 100 µM | > 100 µM | > 100 µM | > 100 µM |  |  |  |  |  |  | 
CCCCCCCCCCCCCCNC(=O)CCC(NC(=O)c1ccc(N(C)Cc2cnc3nc(N)nc(N)c3n2)cc1)C(=O)NCCCCCCCCCCCCCC (configuration not stated) | 34.5 µM | > 31.6 µM | 18 µM | 25.6 µM |  | > 61.9 µM | 40.7 µM | > 81.7 µM | 28.3 µM | > 61.4 µM | 34.8 µM |  |  |  |  |  |  | 
C=CCN1C[C@H](C)N([C@H](c2ccc(C(=O)NC(CC)CC)cc2)c2cccc(OC)c2)C[C@H]1C | 63.3 µM | > 100 µM | > 100 µM | > 100 µM |  | 46.1 µM |  | 32.4 µM | > 100 µM | > 100 µM | > 100 µM |  |  |  |  |  |  | 
COC(=O)c1c(C)cccc1C1CN=NC12Cc1ccc(C)cc1C2=O (configuration not stated) | > 100 µM | > 100 µM | > 100 µM | > 100 µM | > 100 µM |  | > 100 µM | 44.1 µM |  | > 100 µM | > 100 µM |  |  |  |  |  |  | 
CC(=O)OC1CC(OC2C(O)CC(OC3C(O)CC(OC4CCC5(C)C(CCC6C5CC(O)C5(C)C(C7=CC(=O)OC7)CCC65O)C4)OC3C)OC2C)OC(C)C1OC1OC(CO)C(O)C(O)C1O (configuration not stated) | 0.413 µM |  | 0.519 µM | 0.61 µM | 25.7 µM | 0.488 µM | 0.979 µM | 0.161 µM | 0.333 µM | 0.957 µM | 0.846 µM |  |  |  |  |  |  | 
O=C(NC(=O)c1ccccc1[N+](=O)[O-])Nc1ccc(Oc2ncc(Br)cn2)c(Cl)c1 | 0.052 µM |  |  | 0.0312 µM |  |  | 0.0733 µM |  |  |  |  | < 0.0194 µM | < 0.0196 µM | < 0.02 µM | 0.321 µM | 0.04 µM | < 0.0176 µM | 0.0693 µM
CC(=O)NC(Cc1ccc(O)cc1)C(=O)O (configuration not stated) | > 100 µM |  | > 100 µM | > 100 µM | > 100 µM | > 100 µM | > 100 µM | > 100 µM | > 100 µM | > 100 µM |  |  |  |  |  |  |  | 
Nn1c(-c2ccccc2)nn(C(=O)c2ccccc2)c1=O | > 100 µM | > 100 µM | > 100 µM | > 100 µM | > 100 µM |  | > 100 µM | > 100 µM |  | > 100 µM | > 100 µM |  |  |  |  |  |  | 
O=C(N/N=C(/COc1ccc(Cl)cc1)N=Cc1ccncc1)c1ccncc1 | > 100 µM | > 100 µM | > 100 µM | > 100 µM | > 100 µM | > 100 µM | > 100 µM |  | > 100 µM | > 100 µM |  |  |  |  |  |  |  | 
O=[N+]([O-])c1ccc2c(c1)c(OCc1ccccc1)nn2Cc1ccccc1 | > 100 µM | > 100 µM | > 100 µM | > 100 µM | > 100 µM | > 100 µM | > 100 µM | > 100 µM | > 100 µM | > 100 µM |  |  |  |  |  |  |  | 
COc1cc(C2c3cc4c(cc3OC(N3CCOCC3)C2C)OCO4)ccc1O (configuration not stated) | 51.4 µM | > 91.8 µM | > 100 µM | > 26.3 µM | 19.9 µM | 33.6 µM | > 100 µM | > 80.4 µM |  | > 100 µM | > 58 µM |  |  |  |  |  |  | 
C[C@]12CCC(O)CC1=CC[C@@H]1[C@@H]2CC[C@]2(C)C(=O)[C@H](n3ccnc3)C[C@@H]12 (some centres not stated) | > 100 µM | > 100 µM | > 100 µM | > 100 µM | > 100 µM | > 100 µM | > 100 µM | 45.2 µM |  | > 100 µM | > 100 µM |  |  |  |  |  |  | 
Nc1nc(SCCc2ccccc2)c2[nH]cnc2n1 | 61 µM | > 100 µM | > 100 µM | > 100 µM |  | 82.9 µM | > 100 µM | > 100 µM |  | > 100 µM | > 100 µM |  |  |  |  |  |  | 
CCCN(C(=O)c1ccccc1)C(C#N)c1ccc(C(C#N)N(CCC)C(=O)c2ccccc2)cc1 (configuration not stated) | > 100 µM | > 100 µM | > 100 µM | > 100 µM | > 100 µM | > 100 µM |  | > 100 µM | > 100 µM | 74.9 µM | 73.3 µM |  |  |  |  |  |  | 

Compound | TGI (A498 renal) | TGI (CCRF-CEM leukemia) | TGI (KM12 colon) | TGI (MDA-MB-435) | TGI (RPMI-8226 leukemia) | TGI (SK-MEL-2 melanoma) | TGI (SK-MEL-28 melanoma) | TGI (SK-MEL-5 melanoma) | TGI (SK-OV-3 ovarian) | TGI (SNB-19 CNS) | TGI (SNB-75 CNS) | GI50 (CCRF-CEM leukemia) | GI50 (KM12 colon) | GI50 (RPMI-8226 leukemia) | GI50 (SK-MEL-2 melanoma) | GI50 (SK-MEL-5 melanoma) | GI50 (SK-OV-3 ovarian) | GI50 (SNB-19 CNS)
O=C1CCCc2cc3c(cc21)CC1(Cc2ccccc2C1)C3 | 67 µM |  | 13.7 µM | 4.61 µM | 25.7 µM | > 100 µM |  | 16.2 µM | 97.3 µM |  | 3 µM |  |  |  |  |  |  | 
Cc1n[nH]c(=O)n1/N=C/c1ccc(Cl)cc1 | > 100 µM | 94.8 µM | > 100 µM | > 100 µM | > 100 µM |  | > 100 µM |  | > 100 µM | > 100 µM | > 100 µM |  |  |  |  |  |  | 
COc1ccc(C2CC(c3c(O)ccc4ccccc34)=NN2C(C)=O)cc1OC (configuration not stated) | 63.4 µM | 36.6 µM | > 100 µM | 69.2 µM | 54.4 µM | 52.1 µM | > 100 µM | 71.8 µM | > 100 µM |  | > 100 µM |  |  |  |  |  |  | 
COc1cc(C(=O)N(C(=S)OCc2ccccn2)c2ccccc2)cc(OC)c1OC | > 100 µM | > 100 µM | > 100 µM | > 100 µM | 99.8 µM | > 100 µM | > 100 µM | > 100 µM | > 100 µM | > 100 µM |  |  |  |  |  |  |  | 
C[C@@H]1CC[C@]2(C(=O)O)CC[C@]3(C)C(=CC[C@@H]4[C@@]5(C)CC[C@H](O)C(C)(C)[C@@H]5CC[C@]43C)[C@@H]2[C@]1(C)O | 33.3 µM | 23.2 µM | 26.7 µM | 28.8 µM | 33.9 µM | 31.8 µM | 26.9 µM |  | 31.8 µM | 29.7 µM | 28.1 µM |  |  |  |  |  |  | 
C1CN(c2nc3c(nnc4nc(N5CCOCC5)sc43)s2)CCO1 | > 100 µM | > 100 µM | > 100 µM | > 100 µM | > 100 µM | > 100 µM | > 100 µM | > 100 µM |  | > 100 µM |  |  |  |  |  |  |  | 
NC(N)=N/N=C/c1c(-c2ccc(N)cc2)nc2sccn12 | 68.2 µM | > 100 µM | > 100 µM | 94 µM | 99.2 µM | 81.8 µM | > 100 µM | > 100 µM | 64 µM | 69.1 µM |  |  |  |  |  |  |  | 
N#CC1(C#N)N[C@@H](c2ccsc2)[C@H]2C(=O)N(c3ccccc3)C(=O)[C@H]21 | > 100 µM |  | > 100 µM | > 100 µM | 53.5 µM | > 100 µM | > 100 µM | > 100 µM | > 100 µM |  | > 100 µM |  |  |  |  |  |  | 
Cc1cc(Cc2cc(C)c(N)cc2N)c(N)cc1N | > 100 µM |  | > 100 µM | > 100 µM | > 100 µM | > 100 µM | > 100 µM | > 100 µM | > 100 µM | > 100 µM | > 100 µM |  |  |  |  |  |  | 
COc1cc2nc3n(c(=O)c2cc1OC)-c1ccc([N+](=O)[O-])cc1C3=O | 78.6 µM |  | > 100 µM | 40.1 µM | > 100 µM | > 100 µM | > 100 µM | > 100 µM | > 100 µM | > 100 µM | > 100 µM |  |  |  |  |  |  | 
c1ccc(-c2nc(-c3ccccc3SSc3ccccc3-c3nc(-c4ccccc4)nn3-c3ccccc3)n(-c3ccccc3)n2)cc1 | > 100 µM | > 100 µM | > 100 µM | > 100 µM | > 100 µM |  | > 100 µM |  | > 100 µM | > 100 µM | > 100 µM |  |  |  |  |  |  | 
CCOC(=O)CSc1c(C(=O)OCC)c(=O)n(-c2ccccc2)c(=S)n1-c1ccccc1 |  | > 100 µM | > 100 µM | > 100 µM | > 100 µM | > 100 µM | > 100 µM | > 100 µM | > 100 µM | > 100 µM | > 100 µM |  |  |  |  |  |  | 
CC(C)(C)OC(=O)NCCCCC1NC(=O)[C@@H]2Cc3c([nH]c4ccccc34)C(C3CCCCC3)N2C1=O (some centres not stated) | > 100 µM |  | > 100 µM | > 100 µM | 41 µM | > 100 µM | > 100 µM | > 100 µM | > 100 µM | > 100 µM |  |  |  |  |  |  |  | 
COCO[C@@H]1C[C@H]2C(=O)Nc3ccccc3C(=O)N2C1 | > 100 µM |  | > 100 µM | > 100 µM |  | > 100 µM | > 100 µM | > 100 µM | > 100 µM | > 100 µM | > 100 µM |  |  |  |  |  |  | 
O=C1CSC(c2ccc(Cl)cc2)N1c1ccc(Oc2ccc(Cl)cc2)c(Cl)c1 (configuration not stated) |  | 30.6 µM | 29.4 µM | 39 µM | 63.8 µM | 33.9 µM | 35.4 µM | 32.4 µM | 31.9 µM | 30.2 µM | 24.7 µM |  |  |  |  |  |  | 
